Measured values: ChEMBL document CHEMBL1149117, “Synthesis and monoamine transporter binding of 2-(diarylmethoxymethyl)-3 beta-aryltropane derivatives” (J Med Chem, 2004)

Legend:
[1] = target: Sodium-dependent dopamine transporter (Rattus norvegicus, UniProt P23977); assay: Binding affinity against dopamine transporter by using [3H]WIN-35428 as a radioligand
[2] = target: T1, Muscarinic acetylcholine receptor M1 (Rattus norvegicus, UniProt P08482); assay: Binding affinity against Muscarinic acetylcholine receptor M1 by using [3H]pirenzepine as a radioligand
T1 sequence (P08482 whole entry): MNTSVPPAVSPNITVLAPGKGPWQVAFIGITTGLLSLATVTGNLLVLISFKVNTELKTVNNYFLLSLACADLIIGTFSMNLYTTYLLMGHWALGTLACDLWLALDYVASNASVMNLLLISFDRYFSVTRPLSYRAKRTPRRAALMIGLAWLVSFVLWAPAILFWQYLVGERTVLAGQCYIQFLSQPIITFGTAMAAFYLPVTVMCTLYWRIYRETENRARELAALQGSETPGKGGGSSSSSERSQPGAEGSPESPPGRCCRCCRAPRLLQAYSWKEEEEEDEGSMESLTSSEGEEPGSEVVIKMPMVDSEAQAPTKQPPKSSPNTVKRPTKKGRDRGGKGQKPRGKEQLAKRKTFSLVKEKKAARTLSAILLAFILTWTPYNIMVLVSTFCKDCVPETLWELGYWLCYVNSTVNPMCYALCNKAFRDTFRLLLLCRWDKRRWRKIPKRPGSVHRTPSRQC

[3] = target: Norepinephrine transporter (Rattus norvegicus, UniProt Q9WTR4); assay: Binding affinity against norepinephrine transporter by using [3H]nisoxetine as a radioligand
Sequence of Norepinephrine transporter (Q9WTR4 whole entry): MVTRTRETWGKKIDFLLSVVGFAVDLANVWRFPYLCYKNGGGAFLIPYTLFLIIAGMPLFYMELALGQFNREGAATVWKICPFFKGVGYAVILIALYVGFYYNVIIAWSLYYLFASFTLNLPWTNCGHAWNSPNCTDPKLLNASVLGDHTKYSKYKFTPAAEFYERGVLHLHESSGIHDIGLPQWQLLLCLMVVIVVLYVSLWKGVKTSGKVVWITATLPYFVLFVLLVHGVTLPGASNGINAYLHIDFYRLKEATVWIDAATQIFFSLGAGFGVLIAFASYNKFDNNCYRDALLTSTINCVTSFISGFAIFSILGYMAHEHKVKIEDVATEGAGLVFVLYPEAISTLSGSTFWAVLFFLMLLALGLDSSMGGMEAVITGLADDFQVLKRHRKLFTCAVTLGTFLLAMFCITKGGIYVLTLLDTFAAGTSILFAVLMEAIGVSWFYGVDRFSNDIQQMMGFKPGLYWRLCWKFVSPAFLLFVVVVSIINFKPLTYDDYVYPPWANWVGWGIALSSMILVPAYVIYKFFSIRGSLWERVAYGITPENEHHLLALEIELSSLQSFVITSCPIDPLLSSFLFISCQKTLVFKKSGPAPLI

[4] = target: Sodium-dependent serotonin transporter (Rattus norvegicus, UniProt P31652); assay: Binding affinity against serotonin transporter by using [3H]-citalopram as a radioligand
Sequence of Sodium-dependent serotonin transporter (P31652 whole entry): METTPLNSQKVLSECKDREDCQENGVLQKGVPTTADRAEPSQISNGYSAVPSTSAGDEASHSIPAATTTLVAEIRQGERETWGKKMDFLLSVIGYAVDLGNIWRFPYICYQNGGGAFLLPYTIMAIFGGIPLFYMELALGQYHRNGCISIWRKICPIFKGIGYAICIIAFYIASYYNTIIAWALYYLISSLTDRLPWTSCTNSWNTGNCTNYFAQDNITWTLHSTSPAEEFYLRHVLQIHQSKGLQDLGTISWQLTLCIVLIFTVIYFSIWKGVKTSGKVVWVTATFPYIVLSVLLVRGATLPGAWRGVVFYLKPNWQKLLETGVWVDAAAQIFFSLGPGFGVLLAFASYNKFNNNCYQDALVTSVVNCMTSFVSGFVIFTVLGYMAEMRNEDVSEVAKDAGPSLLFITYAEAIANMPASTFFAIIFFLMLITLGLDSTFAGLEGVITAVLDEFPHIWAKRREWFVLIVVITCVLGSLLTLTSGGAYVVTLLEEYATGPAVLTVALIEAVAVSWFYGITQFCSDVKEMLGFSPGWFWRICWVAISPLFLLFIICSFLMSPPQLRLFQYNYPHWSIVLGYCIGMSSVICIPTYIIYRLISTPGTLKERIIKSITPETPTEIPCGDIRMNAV

Sequence of Sodium-dependent dopamine transporter (P23977 whole entry): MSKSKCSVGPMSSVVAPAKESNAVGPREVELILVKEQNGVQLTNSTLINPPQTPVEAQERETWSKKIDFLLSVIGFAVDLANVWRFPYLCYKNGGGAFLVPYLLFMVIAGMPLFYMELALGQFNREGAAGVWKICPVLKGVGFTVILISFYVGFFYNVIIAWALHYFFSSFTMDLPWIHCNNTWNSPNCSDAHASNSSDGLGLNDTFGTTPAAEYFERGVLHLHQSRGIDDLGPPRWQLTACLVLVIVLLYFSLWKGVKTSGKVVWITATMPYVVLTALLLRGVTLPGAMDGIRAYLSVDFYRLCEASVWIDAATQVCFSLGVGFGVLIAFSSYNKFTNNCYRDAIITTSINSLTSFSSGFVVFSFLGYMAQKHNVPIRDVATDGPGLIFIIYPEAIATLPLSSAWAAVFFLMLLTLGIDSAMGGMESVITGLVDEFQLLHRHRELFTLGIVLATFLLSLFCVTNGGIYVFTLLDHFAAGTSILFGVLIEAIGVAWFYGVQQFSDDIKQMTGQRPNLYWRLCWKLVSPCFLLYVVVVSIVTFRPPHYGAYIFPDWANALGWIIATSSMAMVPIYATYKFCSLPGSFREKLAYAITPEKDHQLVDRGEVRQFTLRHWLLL

Row | SMILES | Ki [1] [nM] | Ki [2] [nM] | Ki [3] [nM] | Ki [4] [nM]
1 | Cc1ccc(C2CC3CCC([C@@H]2COC(c2ccccc2)c2ccc(Cl)cc2)N3C)cc1 (some centres undefined) | 937 | 18200 | 22500 | 1000
2 | CN1C2CCC1[C@H](COC(c1ccccc1)c1ccccc1)C(c1ccc(Cl)cc1)C2 (some centres undefined) | 478 | 11500 | 4000 | 408
3 | Cc1ccc(C2CC3CCC([C@@H]2COC(c2ccccc2)c2ccccc2)N3C)cc1 (some centres undefined) | 455 | 12600 | 2610 | 530
4 | CN1C2CCC1[C@H](COC(c1ccc(F)cc1)c1ccc(F)cc1)C(c1ccc(Cl)cc1)C2 (some centres undefined) | 250 | 9930 | 52300 | 724
5 | CN1C2CCC1[C@H](COC(c1ccccc1)c1ccc(Cl)cc1)C(c1ccc(Cl)cc1)C2 (some centres undefined) | 553 | 9600 | 5600 | 1290
6 | Cc1ccc(C2CC3CCC([C@@H]2COC(c2ccc(F)cc2)c2ccc(F)cc2)N3C)cc1 (some centres undefined) | 690 | 9700 | 16000 | 786
7 | Cc1ccc(C2CC3CCC([C@H]2COC(c2ccccc2)c2ccc(Cl)cc2)N3C)cc1 (some centres undefined) | 80 | 31600 | 4400 | 443
8 | CN1C2CCC1[C@@H](COC(c1ccc(F)cc1)c1ccc(F)cc1)C(c1ccc(Cl)cc1)C2 (some centres undefined) | 99 | 16300 | 2890 | 245
9 | Cc1ccc(C2CC3CCC([C@H]2COC(c2ccc(F)cc2)c2ccc(F)cc2)N3C)cc1 (some centres undefined) | 62 | 15500 | 1830 | 233
10 | CN1C2CCC1C(CCCOC(c1ccc(F)cc1)c1ccc(F)cc1)C(c1ccccc1)C2 (centres undefined) | 60 | – | – | –
11 | CN1C2CCC1[C@@H](COC(c1ccccc1)c1ccc(Cl)cc1)C(c1ccc(Cl)cc1)C2 (some centres undefined) | 76 | 39900 | 2060 | 462
12 | CN1C2CCC1[C@@H](COC(c1ccccc1)c1ccc(Cl)cc1)C(c1ccc(F)cc1)C2 (some centres undefined) | 112 | – | – | –
13 | CN1C2CCC1[C@@H](COC(c1ccccc1)c1ccccc1)C(c1ccc(F)cc1)C2 (some centres undefined) | 49 | – | – | –
14 | CN1C2CCC1[C@@H](COC(c1ccc(F)cc1)c1ccc(F)cc1)C(c1ccc(F)cc1)C2 (some centres undefined) | 63 | – | – | –
15 | Cc1ccc(C2CC3CCC([C@H]2COC(c2ccccc2)c2ccccc2)N3C)cc1 (some centres undefined) | 34 | 10600 | 684 | 121
16 | CN1C2CCC1C(CCCOC(c1ccccc1)c1ccc(Cl)cc1)C(c1ccccc1)C2 (centres undefined) | 261 | 24600 | – | 45
17 | CN1C2CCC1C(CCCOC(c1ccccc1)c1ccccc1)C(c1ccccc1)C2 (centres undefined) | 139 | 7970 | 207 | 61
18 | CN1C2CCC1[C@@H](COC(c1ccccc1)c1ccccc1)C(c1ccc(Cl)cc1)C2 (some centres undefined) | 52 | 11000 | 1190 | 147
